# pIC50: −log10 of the molar value.
# Target: T1, Complement C1s subcomponent (Homo sapiens, UniProt P09871)
# T1 sequence (P09871 whole entry): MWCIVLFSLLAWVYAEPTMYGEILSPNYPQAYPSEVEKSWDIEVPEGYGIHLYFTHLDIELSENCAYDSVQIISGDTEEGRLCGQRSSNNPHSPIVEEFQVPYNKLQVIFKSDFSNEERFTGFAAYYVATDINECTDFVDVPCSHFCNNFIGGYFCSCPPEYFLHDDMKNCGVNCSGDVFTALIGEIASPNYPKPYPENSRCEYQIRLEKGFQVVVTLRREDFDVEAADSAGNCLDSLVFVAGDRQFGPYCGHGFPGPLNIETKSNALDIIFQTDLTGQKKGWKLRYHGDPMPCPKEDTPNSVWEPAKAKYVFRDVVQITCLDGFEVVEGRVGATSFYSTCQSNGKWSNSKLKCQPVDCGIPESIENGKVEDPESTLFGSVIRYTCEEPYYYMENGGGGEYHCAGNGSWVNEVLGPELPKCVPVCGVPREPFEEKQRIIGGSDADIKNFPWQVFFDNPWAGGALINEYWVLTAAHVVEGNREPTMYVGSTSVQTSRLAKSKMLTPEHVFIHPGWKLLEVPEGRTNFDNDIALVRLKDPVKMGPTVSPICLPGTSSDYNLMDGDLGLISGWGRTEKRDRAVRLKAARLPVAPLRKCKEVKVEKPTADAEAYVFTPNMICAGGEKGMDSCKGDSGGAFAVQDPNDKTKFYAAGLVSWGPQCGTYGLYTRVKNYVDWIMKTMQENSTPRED
# Assay: Human C1s Enzyme Assay
# Experimental: Human complement C1s enzyme (purified from human serum, Complement Technology, Inc.) at 1.16 nM final concentration was incubated with test compound at various concentrations for 5 min at room temperature in 50 mM Tris, 1 M NaCl, pH 7.5. A synthetic substrate Z-L-Lys-SBzl and DTNB (Ellman's reagent) were added to final concentrations of 100 μM each. Absorbance at 405 nm (A405) was recorded at 30 second intervals for 30 min using a microplate spectrophotometer. IC50 values were calculated by nonlinear regression of complement C1s reaction rates as a function of test compound concentration.
row,pIC50,SMILES
1,> 7.00,"N=C(N)c1cc(CNC(=O)[C@@H]2CC3(CN2C(=O)CNC(=O)c2ccc(-c4ccccc4)cn2)OCCO3)cs1 [US20250346585, Compound 144]"
2,< 6.00,"O=C(NCC(=O)N1CC2(C[C@H]1C(=O)NCc1cc(N3CCCC3=O)cs1)OCCO2)c1ccc(Oc2ccc(F)cc2)cc1 [US20250346585, Compound 290]"
3,> 7.00,"CC(=O)NCCNC[C@@]12C[C@@H]1N(C(=O)CNC(=O)c1ccc3c(c1)-c1ccccc1C3(F)F)[C@H](C(=O)N[C@H](C)c1cc(C(=N)N)cs1)C2 [US20250346585, Compound 315]"
4,> 7.00,"C[C@@H](NC(=O)[C@@H]1C[C@@H](S(C)(=O)=O)CN1C(=O)CNC(=O)c1ccc2sc3ccccc3c2c1)c1cc(C(=N)N)cs1 [US20250346585, Compound 332]"

row,SMILES,pIC50
1,"C[C@@H](NC(=O)[C@H]1C[C@]2(CC(F)(F)F)C[C@@H]2N1C(=O)CNC(=O)c1ccc2c(c1)-c1ccccc1C2(F)F)c1cc(C(=N)N)cs1 [US20250346585, Compound 410]",< 6.00
2,"C[C@@H](NC(=O)[C@@H]1C[C@]2(CC(F)(F)F)C[C@@H]2N1C(=O)CNC(=O)c1ccc2c(c1)-c1ccccc1C2(F)F)c1cc(C(=N)N)cs1 [US20250346585, Compound 411]",< 6.00

# — BindingDB's records for patent US20250346585 (Alexion Pharmaceuticals, 2025)
